Assay results as given in patent US20260000686A1, “CANNABIDIOL COMPOSITIONS FOR THE TREATMENT OF INFLAMMATION” (RevRx, LLC, priority 2019, published 2026).

Tested on: patient (joint, muscle, and arthritic aches and pains)
Assay: Case studies: patient-reported pain relief with topical Cryogel and with previously tried treatments
Assay type: in vivo, human
[1] = Case #2: chronic knee pain and muscle soreness
[2] = Case #7: chronic lower back pain, history of RA
[3] = Case #19: bilateral inflammation of the knees post exercise/running
[4] = Case #21: inflammation of the right knee
[5] = Case #8: diabetic, peripheral neuropathy pain in feet

## COc1ccc2cc([C@H](C)C(=O)O)ccc2c1 [Naproxen]
[1]
  relief from previously tried treatment (patient-reported): mild pain relief
[2]
  relief from previously tried treatment (patient-reported): limit pain relief
Case #13: quadricep tear or strain, right leg muscle pain
  relief from previously tried treatment (patient-reported): limited relief

## Cc1ccc(-c2cc(C(F)(F)F)nn2-c2ccc(S(N)(=O)=O)cc2)cc1 [Celebrex]
[3]
  relief from previously tried treatment (patient-reported): Limited Relief

## COc1ccc2cc([C@H](C)C(=O)[O-])ccc2c1.[Na+] [ALEVER]
Case #5: sore/stiff neck
  relief from previously tried treatment (patient-reported): limited relief

## COc1ccc2c3c1O[C@H]1C(=O)CC[C@@]4(O)[C@@H](C2)N(C)CC[C@]314.Cl [OxyContin®]
Case #1: RA, spinal fusion C3-C4, immediately post-op while taking prescription pain management medication, 1 no-pain, 10 most pain
  pain score: 10

## CC(=O)Nc1ccc(O)cc1 [Tylenol]
[3]
  relief from previously tried treatment (patient-reported): Limited relief
[4]
  relief from previously tried treatment (patient-reported): No relief

## CC(C)C[C@H](CN)CC(=O)O [LYRICA®]
[5]
  relief from previously tried treatment (patient-reported): limit pain relief

## CC(C)Cc1ccc(C(C)C(=O)O)cc1 (stereo not shown) [Ibuprofen]
[1]
  relief from previously tried treatment (patient-reported): mild pain relief
Case #4: chronic knee pain and muscle soreness
  relief from previously tried treatment (patient-reported): minimal relief
[2]
  relief from previously tried treatment (patient-reported): limit pain relief
[5]
  relief from previously tried treatment (patient-reported): limit pain relief
Case #9: quad pain associated with exercise
  relief from previously tried treatment (patient-reported): no relief
Case #10: Tennis Elbow of the right elbow
  relief from previously tried treatment (patient-reported): No relief
Case #11: upper left trapezius muscle pain
  relief from previously tried treatment (patient-reported): No relief
Case #14: right calf muscle pain
  relief from previously tried treatment (patient-reported): limited relief
Case #15: ankle swelling and soreness
  relief from previously tried treatment (patient-reported): limited relief
Case #16: labrum tear post-surgical repair, pain and soreness
  relief from previously tried treatment (patient-reported): limited relief
Case #17: sciatica nerve pain, upper right hip area
  relief from previously tried treatment (patient-reported): limited relief
Case #18: burning, stinging pain and inflammation in upper right elbow
  relief from previously tried treatment (patient-reported): limited relief
[3]
  relief from previously tried treatment (patient-reported): limited relief
[4]
  relief from previously tried treatment (patient-reported): Limited Relief

## Clc1ccc2nsnc2c1NC1=NCCN1 [Tizanidine]
[2]
  relief from previously tried treatment (patient-reported): limit pain relief

## COc1cccc(C2(O)CCCCC2CN(C)C)c1 (stereo not shown) [Tramadol]
[2]
  relief from previously tried treatment (patient-reported): limit pain relief
